Laboratory results from patent US20160074373A1, “METHODS AND COMPOSITIONS FOR INHIBITING HUMAN COPPER TRAFFICKING PROTEINS ATOX1 AND CCS” (SHANGHAI INSTITUTE OF MATERIA MEDICA, CHINESE ACADEMY OF …, priority 2013, published 2016).
Where “and” joins values, the source holds several entries; their conditions need not be identical. Equal values may be shown once.

What was measured:
[1] = system: Lung cancer H1299 cell, Head and neck cancer 212LN cell, Breast cancer MB231 cell; assay: Cancer cell viability / proliferation; details: for cell death in cancer cells: H1299, 212LN, MB231, increasing doses
[2] = system: human PIG1 cell and human dermal fibroblast cell; details: for viability of normal cells: 72 hours, highest concentration tested 10 μM
[3] = system: Atox1-WD4 interaction (eCALWY3 probe); assay: eCALWY3 FRET assay of Atox1-WD4 interaction; assay type: biochemical, human; details: for Fluorescence Intensity Ratio (Citrine/Cerulean): 100 μM compound added; for Recover %: 100 μM compound, recovery of FRET ratio towards eCALWY3 only
Description: FRET for the eCALWY3 was performed in 150 mM HEPES, 100 mM NaCl, 1 mM DTT and 10% glycerol (pH 7.1). Zn^2+ titration was done by mixing 0.9 mM of Zn^2+ from a slightly acidic stock solution of ZnCl2 with buffering systems consisting of 1 mM DHPTA. The effects of varying concentrations of the small molecules were evaluated. Fluorescence spectra and emission anisotropy were recorded on a Varian Cary Eclipse spectrometer.

K562 cells [4] = assay: Intracellular ATP measurement
[5] = Description: An in vivo small molecule treatment experiment was performed to further test the efficacy of these compounds.
H1299 cells [6] = assay: Oxygen consumption rate; details: in the presence or absence of oligomycin
H1299 cells [7] = assay: Lactate production
H1299 cells [8] = assay: 14C-RNA synthesis from 14C-glucose
K562 cancer cells [9] = assay: 8-OHdG levels by triple quadrupole mass spectrometry; assay type: cell-based
Text: FIG. 20B illustrates 8-OHdG levels in K562 cancer cells determined by triple quadrupole mass spectrometry analysis. […] .

K562 cancer cells [10] = assay: Cell cycle arrest assay
K562 cells [11] = assay: ROS production (DCFH-DA); assay type: cell-based
Description: (§1) Cells were treated with DMSO and DC_AC50 for 12 h and ROS generation was detected with DCFH-DA. Cells were incubated with 10 μM of DCFH-DA for 30 min at 37° C., washed twice with PBS, and immediately analyzed by a FACScan flow cytometer. The antioxidant NAC was treated with 3 mM concentration.

H1299 cells [12] = assay: ROS production (DCFH-DA); assay type: cell-based
Description: as §1

H1299 cancer cells [13] = assay: Cell cycle arrest assay
H1299 cells [14] = assay: 14C-lipid synthesis from 14C-glucose; assay type: cell-based
[15] = system: cytochrome c oxidase (CCO) in H1299 cells; assay: Cytochrome c oxidase activity assay; details: compared to the control
H1299 cancer cells [16] = assay: 8-OHdG levels by triple quadrupole mass spectrometry; assay type: cell-based
Text: FIG. 20A illustrates 8-OHdG levels in H1299 cancer cells determined by triple quadrupole mass spectrometry analysis. […] .

H1299 cells [17] = assay: Glucose utilization assay
[18] = system: cytochrome c oxidase (CCO) in K562 cells; assay: Cytochrome c oxidase activity assay; details: compared to the control
H1299 cells [19] = assay: H1299 xenograft; details: 100 mg/kg/day i.p. for 21 days vs vehicle control
[20] = system: SOD activity in H1299 cells; assay: SOD activity assay; details: 48 h treatment
human CCS (hCCS) = target: T1, human CCS (hCCS) (Homo sapiens, UniProt O14618); assay: Intrinsic fluorescence Kd measurement; assay type: binding; details: intrinsic tryptophan fluorescence
T1 construct: 6-His (cleaved yes); made in house; host or cells: E. coli BL21 (pET28a)
T1 sequence (O14618 1-274): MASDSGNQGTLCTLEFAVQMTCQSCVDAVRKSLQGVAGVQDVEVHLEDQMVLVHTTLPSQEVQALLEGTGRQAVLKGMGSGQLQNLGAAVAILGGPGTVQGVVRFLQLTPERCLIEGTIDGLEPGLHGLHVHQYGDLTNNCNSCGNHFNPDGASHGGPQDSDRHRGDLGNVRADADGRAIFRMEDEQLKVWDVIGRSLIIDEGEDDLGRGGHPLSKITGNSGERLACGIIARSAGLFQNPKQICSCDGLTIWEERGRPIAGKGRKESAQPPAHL
Description: Based on this similarity, the intrinsic fluorescence of tyrosine for Atox1 and WD4 and tryptophan for hCCS upon addition of small molecules was monitored.
The binding assay was performed in an […]. […] The Atox, WD4 domain and hCCS (1 μM) were performed in 50 mM HEPES, 200 mM NaCl, 1 mM DTT (pH 7.1). […] Following this fluorescence results, the Kds of the small molecules was calculated.

HeLa cells = assay: Live cell copper(I) probe imaging of copper uptake; details: 50 μM, added 10 min after CuSO4 (150 μM)
K562 cells [21] = assay: K562 xenograft; details: 100 mg/kg/day i.p. for 21 days vs vehicle control
H1299 cells [22] = assay: Apoptosis and caspase-3 activity
[23] = system: SOD activity in K562 cells; assay: SOD activity assay; details: 48 h treatment
[24] = system: AMPK phosphorylation and ACC1 phosphorylation; assay: Western blot of AMPK and ACC1 phosphorylation; assay type: cell-based; details: for rescue of AMPK and ACC1 phosphorylation increased by compound 50: co-treatment with compound 50
SOD1 and SOD2 = assay: Western blot of SOD1 and SOD2 levels; details: H1299 and K562 cells
H1299 cells [25] = assay: Intracellular ATP measurement
cell proliferation = assay: Rescue of cell proliferation inhibition induced by compound 50; assay type: cell-based; details: co-treatment with compound 50
tumor growth = details: TM-induced copper deficiency; cited from earlier work

## CCN1CCc2nc3sc(C(=O)Nc4ccccc4OC(F)(F)F)c(N)c3cc2C1 [Compound 2, 3-amino-6-ethyl-N-(2-(trifluoromethoxy)phenyl)-5,6,7,8-tetrahydro-thieno[2,3-b][1,6]naphthyridine-2-carboxamide]
[1]
  cell death in cancer cells: induce cell death
[2]
  viability of normal cells: not harmful
[3]
  Fluorescence Intensity Ratio (Citrine/Cerulean): eCALWY3 only: 3.54 100 μM compound added: 3.05
  Recover %: 86%

## Nc1c(C(=O)NCC(c2ccccc2)c2ccccc2)sc2nc(-c3ccncc3)cc(C(F)(F)F)c12 [Compound 30]
[1]
  cell death in cancer cells: induce cell death
[2]
  viability of normal cells: not harmful
[3]
  Fluorescence Intensity Ratio (Citrine/Cerulean): eCALWY3 only: 2.27 100 μM compound added: 1.53
  Recover %: 67%

## COc1cccc(-c2ccc3c(N)c(C(=O)Nc4cc(OC)ccc4Cl)sc3n2)c1 [Compound 49, 3-amino-N-(2-chloro-5-methoxyphenyl)-6-(3-methoxyphenyl)thieno[2,3-b]pyridine-2-carboxamide]
[1]
  cell death in cancer cells: induce cell death
[2]
  viability of normal cells: not harmful
[3]
  Fluorescence Intensity Ratio (Citrine/Cerulean): eCALWY3 only: 2.24 100 μM compound added: 1.89
  Recover %: 84%

## Nc1c(C(=O)Nc2c(F)cc(F)cc2Br)sc2nc3c(cc12)CCC3 [Compound 50, 3-amino-N-(2-bromo-4,6-difluorophenyl)-6,7-dihydro-5H-cyclopenta[b]thieno[3,2-e]pyridine-2-carboxamide]
K562 cells [4]
  cellular ATP levels: significantly reduced
[5]; mouse, in vivo, 100 mg/kg/day
  GRAN: 1.58 ± 1.4 ×10^3/μL
  HCT: 30.85 ± 4.879%
  HGB: 7.45 ± 1.768 g/dL
  LYM: 4.74 ± 1.556 ×10^3/μL
  MCH: 13.6 ± 1.273 pg
  MCHC: 24 ± 1.98 g/dL
  MCV: 56.75 ± 0.919 fL
  MONO: 0.44 ± 0.17 ×10^3/μL
  PLT: 742 ± 684.5 ×10^3/μL
  RBC: 5.43 ± 0.778 ×10^6/μL
  RDWa: 21.5 ± 4.667%
  WBC: 6.89 ± 3.125 ×10^3/μL
[5]; nude mice, 100 mg/kg/day, mean
  MPV: 6.35 ± 0.495 fL
[5]; nude, mouse, in vivo, ip, 4 weeks
  well-tolerated dose: 100 mg/kg/day
H1299 cells [6]
  oxygen consumption rate: significantly decreased
H1299 cells [7]
  cellular level of lactate: no noticeable changes
[1]
  cell death in cancer cells: induce cell death
[1]; dose-dependent
  cancer cell proliferation: high efficiency in inhibiting cancer cell proliferation
H1299 cells [8]
  glucose-dependent RNA synthesis: no noticeable changes
K562 cancer cells [9]
  8-OHdG levels: increased
K562 cancer cells [10]
  cell cycle: G2/M phase cell cycle arrest
[2]
  effect on noncancerous cell lines: minimum effects
  viability of normal cells: not harmful
K562 cells [11]; 10 μM
  cellular ROS level: increased cellular ROS level
H1299 cells [12]; 10 μM
  cellular ROS level: increased cellular ROS level
H1299 cancer cells [13]
  cell cycle: G2/M phase cell cycle arrest
H1299 cells [14]
  lipid synthesis: significant decreases
[15]
  CCO activity: significantly lowered
H1299 cancer cells [16]
  8-OHdG levels: increased
H1299 cells [17]
  glucose uptake: no noticeable changes
[18]
  CCO activity: significantly lowered
H1299 cells [19]
  tumor growth and size: significantly decreased tumor growth and size
[20]
  SOD activity: noticeably decreased
Human CCS (hCCS)
  Kd: 8 µM and ~8.1 µM
HeLa cells
  copper uptake: reduced copper uptake
K562 cells [21]
  tumor growth and size: significantly decreased tumor growth and size
H1299 cells [22]
  apoptosis: didn't noticeably induce apoptosis
  caspase-3 activity: does not noticeably affect
[23]
  SOD activity: noticeably decreased
[24]; H1299 and K562 cells
  ACC1 phosphorylation: increased
  AMPK phosphorylation: increased
SOD1 and SOD2
  SOD2 expression level: Reduced expression
H1299 cells [25]
  cellular ATP levels: significantly reduced

## COc1ccc2cc3c(N)c(C(=O)Nc4ccc(C(C)=O)cc4)sc3nc2c1 [Compound 61, N-(4-acetylphenyl)-3-amino-7-methoxythieno[2,3-b]quinoline-2-carboxamide]
[1]
  cell death in cancer cells: induce cell death
[2]
  viability of normal cells: not harmful
[3]
  Fluorescence Intensity Ratio (Citrine/Cerulean): eCALWY3 only: 3.68 100 μM compound added: 2.72
  Recover %: 74%

## Cc1cc(NC(=O)c2sc3nc(-c4ccccc4)cc(C(F)(F)F)c3c2N)no1 [Compound 71, 3-amino-N-(5-methylisoxazol-3-yl)-6-phenyl-4-(trifluoromethyl)thieno[2,3-b]pyridine-2-carboxamide]
[2]
  viability of normal cells: toxic to normal cells
[3]
  Fluorescence Intensity Ratio (Citrine/Cerulean): eCALWY3 only: 2.25 100 μM compound added: 1.86
  Recover %: 83%

## CC(=O)N[C@@H](CS)C(=O)O [NAC, N-acetyl-L-cysteine, reference compound]
K562 cancer cells [9]; NAC 3 mM
  rescue of 8-OHdG levels increased by compound 50: rescued
K562 cells [11]; co-treatment with compound 50
  rescue of cellular ROS levels increased by compound 50: almost completely rescued
H1299 cells [12]; co-treatment with compound 50
  rescue of cellular ROS levels increased by compound 50: almost completely rescued
Cell proliferation
  rescue of cell proliferation inhibited by compound 50: partially rescued
H1299 cancer cells [16]; NAC 3 mM
  rescue of 8-OHdG levels increased by compound 50: rescued
[24]
  rescue of AMPK and ACC1 phosphorylation increased by compound 50: could not be rescued

## [SH-].[SH-].[S]=[Mo]=[S] [TM, tetrathiomolybdate]
Tumor growth
  tumor growth: significantly inhibited tumor growth

## c1cc(-c2cnn3cc(-c4ccc(OCCN5CCCCC5)cc4)cnc23)ccn1 [compound C, reference compound]
Cell proliferation
  rescue of cell proliferation inhibited by compound 50: partially rescued
H1299 cells [14]; co-treatment with compound 50
  rescue of lipid synthesis decreased by compound 50: recovered lipid synthesis
[24]
  rescue of AMPK and ACC1 phosphorylation increased by compound 50: almost completely reversed
